Tested on: Anaesthetised Guinea Pigs
Experiment: Test A: Primary electrophysiological effects in anaesthetised guinea pigs
Format: in vivo, guinea pig
Conditions: index of class III electrophysiological potency; MAP duration at 75 percent repolarization during pacing; intravenous infusion, cumulative doses; derived from mean dose-response curve
Description: Primary Electrophysiological Effects In Anaesthetised Guinea Pigs
Guinea pigs weighing between 660 and 1100 g were used. The animals were housed for at least one week before the experiment and had free access to food and tap water during that period.
Anaesthesia was induced by an intraperitoneal injection of pentobarbital (40 to 50 mg/kg) and catheters were introduced into one carotid artery (for blood pressure recording and blood sampling) and into one jugular vein (for drug infusions). Needle electrodes were placed on the limbs for recording of ECGs (lead II). A thermistor was placed in the rectum and the animal was placed on a heating pad, set to a rectal temperature of between 37.5 and 38.5° C. […]
The left ventricular epicardium was exposed by a left-sided thoracotomy, and a custom-designed suction electrode for recording of the monophasic action potential (MAP) was applied to the left ventricular free wall. The electrode was kept in position as long as an acceptable signal could be recorded, otherwise it was moved to a new position. […]
The blood pressure, the MAP signal and the lead II ECG were recorded on a Mingograph ink-jet recorder (Siemens-Elema, Sweden). […] The signals were processed using a custom-made program developed for acquisition and analysis of physiological signals measured in experimental animals (see Axenborg and Hirsch, Comput. Methods Programs Biomed. 41, 55 (1993)). […]

## CC(C)(C)C(=O)CN1CC2CN(CCCNc3ccc(C#N)cc3)CC(C1)O2.O=S(=O)(O)c1ccccc1 [Compound A, 4-({3-[7-(3,3-dimethyl-2-oxobutyl)-9-oxa-3,7-diazabicyclo[3.3.1]non-3-yl]propyl}amino)benzonitrile, benzenesulfonic acid salt]
  D10 (cumulative dose prolonging the MAP duration by 10% from the baseline): 6.7
